Experimental data reported in patent US20240350432A1, “CENTRAL NERVOUS SYSTEM MODULATORS AS COVID-19 THERAPEUTICS” (priority 2023, published 2024).
“Also recorded” adds a separate entry of the source.

How the values were obtained:
Format in all cases: in vivo, mice
pons and medulla = test: Cresyl violet staining, semi-qualitative morphology ranking; settings: COVID-19 positive; for cresyl violet morphological rank vs (−) control: rank 1-3
[1] = system: myelin of the pons and medulla; test: Black-Gold II Myelin staining, semi-qualitative myelination ranking
GFAP = GFAP immunofluorescence (reactive astrocytes), mean FL intensity; settings: for mean GFAP FL intensity with progression of COVID-19 infection (time post-inoculation): COVID-19 positive groups, 3, 6, 10 days
IBA1 = IBA1 immunofluorescence (microglia), mean FL intensity; settings: for mean IBA1 FL intensity with progression of COVID-19 infection (time post-inoculation): COVID-19 positive groups, 3, 6, 10 days
[2] = COVID-19 positive, 6 days post-inoculation
[3] = COVID-19 positive, 3 days post-inoculation

Row | Structure (SMILES) | cresyl violet morphological rank vs (−) control (pons and medulla; 3 days post-inoculation) | cresyl violet morphological rank vs saline treatment (pons and medulla; 6 days post-inoculation) | cresyl violet morphological rank vs (−) control (pons and medulla; 6 days post-inoculation) | cresyl violet morphological rank vs saline treatment (pons and medulla; 10 days post-inoculation) | Black-Gold II myelination ranking [1, 2] | Black-Gold II myelination ranking across time points post-inoculation ([1]; regardless of COVID-19 status) | mean GFAP FL intensity with progression of COVID-19 infection (time post-inoculation) (GFAP) | preventative effect in COVID-19 induced neuroinflammation (GFAP and IBA1 FL intensity trends) (GFAP; respiratory centers of the brain) | mean IBA1 FL intensity with progression of COVID-19 infection (time post-inoculation) (IBA1) | cresyl violet morphological rank vs (−) control (pons and medulla; 10 days post-inoculation) | Black-Gold II myelination ranking [1, 3] | Black-Gold II myelination ranking vs (−) control ([1]; COVID-19 positive, 10 days post-inoculation) | COVID-19 related changes in myelination, overall finding ([1]; respiratory centers of the brain, listed as Memantine) | GFAP FL intensity nonlinear fit over time, Best Fit (GFAP; COVID-19 positive groups) | IBA1 FL intensity nonlinear fit over time, Best Fit (IBA1; COVID-19 positive groups) | FL intensity vs saline and ifenprodil treated groups (FIG. 6B) (IBA1; [3]) | mean IBA1 FL intensity, COVID-19 positive vs negative group of same treatment (IBA1; sacrificed 10 days post-virus inoculation)
1 | CC(C(O)c1ccc(O)cc1)N1CCC(Cc2ccccc2)CC1 (stereo not shown) [ifenprodil] | no difference in morphological rank | increases morphological rank | increase in rankings | improve the morphological rank | increased myelination ranking | no differences; also recorded: no significant difference | significantly changed | did not have a preventative effect | significantly changed | – | – | – | – | – | – | – | –
2 | CC12CC3CC(C)(C1)CC(N)(C3)C2 [memantine] | – | – | significantly lower than the negative control | improve the morphological rank | decreased myelination rankings | – | no change; also recorded: increasing time point was not associated with increasing mean GFAP FL intensity | – | increasing time point was not associated with decreasing mean IBA1 FL intensity; also recorded: no change | morphology rankings similar to the negative control groups; also recorded: no longer a difference in morphological rank | decreased myelination rankings | not significantly different | signs of demyelination | Horizontal Line | Horizonal Line | decreased expression of GFAP; also recorded: slightly lower | significantly decreased; also recorded: slightly lower
